For this test, the target named is T1, Carbon monoxide dehydrogenase small chain (Afipia carboxidovorans (strain ATCC 49405 / DSM 1227 / KCTC 32145 / OM5), UniProt P19921).
T1 sequence (P19921 whole entry): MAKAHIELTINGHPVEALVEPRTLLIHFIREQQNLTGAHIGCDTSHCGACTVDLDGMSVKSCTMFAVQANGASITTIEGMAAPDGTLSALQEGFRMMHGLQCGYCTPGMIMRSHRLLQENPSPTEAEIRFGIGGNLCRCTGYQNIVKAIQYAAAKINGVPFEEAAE
Put plainly: Inhibition Assay. The source says:
Inhibition of CODH by Diphenyliodomium chloride. Inactivation of the FAD cofactor of CODH was accomplished by covalent modification of the flavin with diphenyliodonium chloride using a modification of the procedure of Chakraborty and Massey.

Structures are written as SMILES.

Broadly, the Kd is the constant that tells how readily two partners part at equilibrium. Higher therefore signals a looser complex. In turn, `O=C1C=CC(=O)C=C1` [1,4-Benzoquinone] yielded a dissociation constant Kd of 47.6 µM. In other words, the double-digit micromolar range.
The compound `O=C1C=CC(=O)c2ccccc21` [1,4-dihydronaphthalene-1,4-dione] gave a Kd of 140 µM.

Values taken from BindingDB's records for doi:10.1021/bi1017182 (University of California Riverside, 2011).
